Results: the NIST ThermoML archive (doi:10.1007/s10765-008-0410-4)
± gives the expanded uncertainty stated by the source.

Settings: Liquid, Vibrating tube method

`CCCCn1cc[n+](C)c1.F[B-](F)(F)F` [1-butyl-3-methylimidazolium tetrafluoroborate] showed a mass density (298.15 K, 280 kPa) of 1211.19 ± 1.3 kg/m3, a mass density (298.15 K, 5640 kPa) of 1213.63 ± 1.4 kg/m3 and a mass density (298.15 K, 10620 kPa) of 1215.85 ± 1.4 kg/m3. For the same compound, the mass density (298.15 K, 15340 kPa) was 1217.77 ± 1.4 kg/m3, the mass density (298.15 K, 20640 kPa) was 1220.29 ± 1.5 kg/m3 and the mass density (298.15 K, 25270 kPa) was 1222.18 ± 1.5 kg/m3. The mass density (298.15 K, 30050 kPa) was 1223.93 ± 1.6 kg/m3, the mass density (298.15 K, 35410 kPa) was 1226.07 ± 1.6 kg/m3 and the mass density (298.15 K, 39610 kPa) was 1227.81 ± 1.7 kg/m3. It also gave a mass density (323.15 K, 730 kPa) of 1192.89 ± 1.3 kg/m3, a mass density (323.15 K, 5640 kPa) of 1195.3 ± 1.3 kg/m3 and a mass density (323.15 K, 10610 kPa) of 1197.71 ± 1.4 kg/m3. The mass density (323.15 K, 15440 kPa) was 1200.01 ± 1.4 kg/m3, the mass density (323.15 K, 20460 kPa) was 1202.37 ± 1.4 kg/m3 and the mass density (323.15 K, 25360 kPa) was 1204.64 ± 1.5 kg/m3. For the same compound, the mass density (323.15 K, 30740 kPa) was 1207.09 ± 1.5 kg/m3, the mass density (323.15 K, 35650 kPa) was 1209.29 ± 1.6 kg/m3 and the mass density (323.15 K, 39850 kPa) was 1211.14 ± 1.6 kg/m3. The mass density (348.15 K, 210 kPa) was 1174.44 ± 1.2 kg/m3, the mass density (348.15 K, 5960 kPa) was 1177.75 ± 1.3 kg/m3 and the mass density (348.15 K, 10480 kPa) was 1180.3 ± 1.3 kg/m3. It also gave a mass density (348.15 K, 15430 kPa) of 1182.72 ± 1.3 kg/m3, a mass density (348.15 K, 20870 kPa) of 1185.63 ± 1.4 kg/m3 and a mass density (348.15 K, 25850 kPa) of 1188.16 ± 1.4 kg/m3. The mass density (348.15 K, 30110 kPa) was 1190.19 ± 1.5 kg/m3, the mass density (348.15 K, 35110 kPa) was 1192.88 ± 1.5 kg/m3 and the mass density (348.15 K, 39610 kPa) was 1194.77 ± 1.6 kg/m3. For the same compound, the mass density (373.15 K, 470 kPa) was 1157.24 ± 1.2 kg/m3, the mass density (373.15 K, 5350 kPa) was 1160.25 ± 1.2 kg/m3 and the mass density (373.15 K, 10080 kPa) was 1163.09 ± 1.2 kg/m3. The mass density (373.15 K, 15710 kPa) was 1166.39 ± 1.3 kg/m3, the mass density (373.15 K, 20970 kPa) was 1169.38 ± 1.3 kg/m3 and the mass density (373.15 K, 25820 kPa) was 1172.07 ± 1.4 kg/m3. It also gave a mass density (373.15 K, 30120 kPa) of 1174.39 ± 1.4 kg/m3, a mass density (373.15 K, 35530 kPa) of 1177.22 ± 1.5 kg/m3 and a mass density (373.15 K, 39820 kPa) of 1179.41 ± 1.5 kg/m3. For the same compound, the mass density (398.15 K, 870 kPa) was 1141.05 ± 1.1 kg/m3, the mass density (398.15 K, 6670 kPa) was 1144.53 ± 1.2 kg/m3 and the mass density (398.15 K, 10490 kPa) was 1147.07 ± 1.2 kg/m3. It also gave a mass density (398.15 K, 15730 kPa) of 1150.32 ± 1.2 kg/m3, a mass density (398.15 K, 20980 kPa) of 1153.78 ± 1.3 kg/m3 and a mass density (398.15 K, 25140 kPa) of 1156.3 ± 1.3 kg/m3. The mass density (398.15 K, 30890 kPa) was 1159.52 ± 1.4 kg/m3, the mass density (398.15 K, 35810 kPa) was 1162.4 ± 1.4 kg/m3 and the mass density (398.15 K, 39560 kPa) was 1164.38 ± 1.4 kg/m3.
